# Test results published in ChEMBL document CHEMBL5143615, “Novel 2-aryl-4-aryloxyquinoline-based fungistatics for Mucor circinelloides. Biological evaluation of activity, QSAR and docking study” (Bioorg Med Chem Lett, 2022).
# The source made the active and inactive calls. The rule behind the calls is not given here.
# Tests used:
# Mucor circinelloides [1] = test: Antifungal activity against Mucor circinelloides M5 strain assessed as reduction in spore germination at 100 ug/ml relative to control; format: functional; set-up: scale not given: the % may be the effect or the level left; conditions: dose 100 µg/ml
# Mucor circinelloides [2] = test: Antifungal activity against Mucor circinelloides R7B wild type strain assessed as reduction in spore germination at 100 ug/ml relative to control; format: functional; set-up: scale not given: the % may be the effect or the level left; conditions: dose 100 µg/ml
# Mucor circinelloides [3] = test: Antifungal activity against Mucor circinelloides R7B wild type strain assessed as reduction in spore germination at 25 ug/ml relative to control; format: functional; set-up: scale not given: the % may be the effect or the level left; conditions: dose 25 µg/ml
# Mucor circinelloides [4] = test: Antifungal activity against Mucor circinelloides R7B wild type strain assessed as reduction in spore germination at 50 ug/ml relative to control; format: functional; set-up: scale not given: the % may be the effect or the level left; conditions: dose 50 µg/ml
# Mucor circinelloides [5] = test: Antifungal activity against Mucor circinelloides M5 strain assessed as reduction in spore germination at 25 ug/ml relative to control; format: functional; set-up: scale not given: the % may be the effect or the level left; conditions: dose 25 µg/ml
# Mucor circinelloides [6] = test: Antifungal activity against Mucor circinelloides M5 strain assessed as reduction in spore germination at 150 ug/ml relative to control; format: functional; set-up: scale not given: the % may be the effect or the level left; conditions: dose 150 µg/ml
# Mucor circinelloides [7] = test: Antifungal activity against Mucor circinelloides M5 strain assessed as reduction in spore germination at 50 ug/ml relative to control; format: functional; set-up: scale not given: the % may be the effect or the level left; conditions: dose 50 µg/ml
# Mucor circinelloides [8] = test: Antifungal activity against Mucor circinelloides R7B wild type strain assessed as reduction in spore germination at 150 ug/ml relative to control; format: functional; set-up: scale not given: the % may be the effect or the level left; conditions: dose 150 µg/ml
# [9] = system: Trichophyton mentagrophytes; test: Antifungal activity against Trichophyton mentagrophytes clinical isolate 3 assessed as reduction in fungal growth by broth dilution method; format: functional
# Microsporum canis [10] = test: Antifungal activity against Microsporum canis clinical isolate 1 assessed as reduction in fungal growth by broth dilution method; format: functional
# Epidermophyton floccosum = test: Antifungal activity against Epidermophyton floccosum clinical isolate 1 assessed as reduction in fungal growth by broth dilution method; format: functional
# Mucor circinelloides [11] = test: Antifungal activity against Mucor circinelloides R7B wild type strain assessed as non-germinated spores and undifferentiated hyphae at 50 ug/ml by microscopic analysis; format: functional, organism-based; conditions: dose 50.0 µg/ml
# [12] = biological target: T1, Lanosterol 14-alpha demethylase (Mus musculus, UniProt Q8K0C4); test: Inhibition of CYP51 in mouse NIH/3T3 cells assessed as specific enzymatic activity at 50 ug/ml incubated for 48 hrs by ELISA analysis; format: ADME, cell-based; conditions: nih/3t3, 48 h, dose 50 µg/ml
# T1 sequence (Q8K0C4 whole entry): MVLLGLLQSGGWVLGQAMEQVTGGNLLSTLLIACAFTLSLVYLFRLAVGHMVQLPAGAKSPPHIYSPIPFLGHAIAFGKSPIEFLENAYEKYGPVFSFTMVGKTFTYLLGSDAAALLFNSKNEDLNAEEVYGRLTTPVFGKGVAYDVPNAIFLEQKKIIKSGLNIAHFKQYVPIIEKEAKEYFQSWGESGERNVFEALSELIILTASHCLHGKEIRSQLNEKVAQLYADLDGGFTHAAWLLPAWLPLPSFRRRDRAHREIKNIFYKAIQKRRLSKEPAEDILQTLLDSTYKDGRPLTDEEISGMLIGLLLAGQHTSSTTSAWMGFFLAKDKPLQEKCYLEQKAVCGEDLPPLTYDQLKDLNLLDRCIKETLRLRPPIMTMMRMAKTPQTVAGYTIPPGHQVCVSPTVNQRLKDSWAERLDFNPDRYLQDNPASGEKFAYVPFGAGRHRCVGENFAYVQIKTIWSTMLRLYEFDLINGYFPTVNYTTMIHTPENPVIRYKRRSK
# [13] = Cytotoxicity against mouse NIH/3T3 cells assessed as reduction in cell viability at 200 ug/ml incubated for 48 hrs by MTT assay (reference value: 93.8 +/- 4.9 %); format: toxicity, cell-based, NIH3T3; conditions: at 200 µg/mL, read-out: Activity
# Mucor circinelloides [14] = test: Antifungal activity against Mucor circinelloides M5 strain assessed as complete absence of mycelia at 100 to 150 ug/ml by microscopic analysis; format: functional, organism-based; conditions: dose 100-150 µg/ml
# Mucor circinelloides [15] = test: Antifungal activity against Mucor circinelloides R7B wild type strain assessed as reduction in fungal growth by broth dilution method; format: functional
# Aspergillus niger = test: Antifungal activity against Aspergillus niger clinical isolate 1 assessed as reduction in fungal growth by broth dilution method; format: functional
# Microsporum canis [16] = test: Antifungal activity against Microsporum canis clinical isolate 2 assessed as reduction in fungal growth by broth dilution method; format: functional
# [17] = system: Trichophyton mentagrophytes; test: Antifungal activity against Trichophyton mentagrophytes clinical isolate 1 assessed as reduction in fungal growth by broth dilution method; format: functional
# Mucor circinelloides [18] = test: Antifungal activity against Mucor circinelloides R7B wild type strain assessed as non-germinated spores at 100 to 150 ug/ml by microscopic analysis; format: functional, organism-based; conditions: dose 100-150 µg/ml
# Mucor circinelloides [19] = test: Antifungal activity against Mucor circinelloides R7B wild type strain assessed as few mycelia with several spores at 50 ug/ml by microscopic analysis; format: functional, organism-based; conditions: dose 50.0 µg/ml
# Microsporum canis [20] = test: Antifungal activity against Microsporum canis clinical isolate 3 assessed as reduction in fungal growth by broth dilution method; format: functional
# [21] = biological target: T1, Lanosterol 14-alpha demethylase; test: Inhibition of CYP51 in mouse NIH/3T3 cells assessed as specific enzymatic activity at 100 ug/ml incubated for 48 hrs by ELISA analysis; format: ADME, cell-based; conditions: nih/3t3, 48 h, dose 100 µg/ml
# [22] = Cytotoxicity against mouse NIH/3T3 cells assessed as reduction in cell viability at 150 ug/ml incubated for 48 hrs by MTT assay (reference value: 93.8 +/- 4.9 %); format: toxicity, cell-based, NIH3T3; conditions: at 150 µg/mL, read-out: Activity
# [23] = Cytotoxicity against mouse NIH/3T3 cells assessed as reduction in cell viability at 50 ug/ml incubated for 48 hrs by MTT assay (reference value: 93.8 +/- 4.9 %); format: toxicity, cell-based, NIH3T3; conditions: at 50 µg/mL, read-out: Activity
# Nannizzia gypsea [24] = test: Antifungal activity against Microsporum gypseum clinical isolate 2 assessed as reduction in fungal growth by broth dilution method; format: functional
# Aspergillus nidulans [25] = test: Antifungal activity against Aspergillus nidulans clinical isolate 1 assessed as reduction in fungal growth by broth dilution method; format: functional
# [26] = biological target: T1, Lanosterol 14-alpha demethylase; test: Inhibition of CYP51 in mouse NIH/3T3 cells assessed as specific enzymatic activity at 200 ug/ml incubated for 48 hrs by ELISA analysis; format: ADME, cell-based; conditions: nih/3t3, 48 h, dose 200 µg/ml
# [27] = biological target: T1, Lanosterol 14-alpha demethylase; test: Inhibition of CYP51 in mouse NIH/3T3 cells assessed as specific enzymatic activity at 25 ug/ml incubated for 48 hrs by ELISA analysis; format: ADME, cell-based; conditions: nih/3t3, 48 h, dose 25 µg/ml
# [28] = biological target: T1, Lanosterol 14-alpha demethylase; test: Inhibition of CYP51 in mouse NIH/3T3 cells assessed as specific enzymatic activity at 150 ug/ml incubated for 48 hrs by ELISA analysis; format: ADME, cell-based; conditions: nih/3t3, 48 h, dose 150 µg/ml
# Aspergillus nidulans [29] = test: Antifungal activity against Aspergillus nidulans clinical isolate 2 assessed as reduction in fungal growth by broth dilution method; format: functional
# Mucor circinelloides [30] = test: Antifungal activity against Mucor circinelloides M5 strain assessed as few mycelia with several spores at 50 ug/ml by microscopic analysis; format: functional, organism-based; conditions: dose 50.0 µg/ml
# [31] = Cytotoxicity against mouse NIH/3T3 cells assessed as reduction in cell viability at 100 ug/ml incubated for 48 hrs by MTT assay (reference value: 93.8 +/- 4.9 %); format: toxicity, cell-based, NIH3T3; conditions: at 100 µg/mL, read-out: Activity
# Mucor circinelloides [32] = test: Antifungal activity against Mucor circinelloides R7B wild type strain assessed as complete absence of mycelia at 100 to 150 ug/ml by microscopic analysis; format: functional, organism-based; conditions: dose 100-150 µg/ml
# [33] = Cytotoxicity against mouse NIH/3T3 cells assessed as reduction in cell viability at 25 ug/ml incubated for 48 hrs by MTT assay (reference value: 93.8 +/- 4.9 %); format: toxicity, cell-based, NIH3T3; conditions: at 25 µg/mL, read-out: Activity
# Mucor circinelloides [34] = test: Antifungal activity against Mucor circinelloides M5 strain assessed as reduction in fungal growth by broth dilution method; format: functional
# Mucor circinelloides [35] = test: Antifungal activity against Mucor circinelloides M5 strain assessed as non-germinated spores and undifferentiated hyphae at 50 ug/ml by microscopic analysis; format: functional, organism-based; conditions: dose 50.0 µg/ml
# [36] = system: Trichophyton mentagrophytes; test: Antifungal activity against Trichophyton mentagrophytes clinical isolate 2 assessed as reduction in fungal growth by broth dilution method; format: functional
# Nannizzia gypsea [37] = test: Antifungal activity against Microsporum gypseum clinical isolate 1 assessed as reduction in fungal growth by broth dilution method; format: functional
# Mucor circinelloides [38] = test: Antifungal activity against Mucor circinelloides M5 strain assessed as non-germinated spores at 100 to 150 ug/ml by microscopic analysis; format: functional, organism-based; conditions: dose 100-150 µg/ml
# Trichophyton rubrum [39] = test: Antifungal activity against Trichophyton rubrum clinical isolate 1 assessed as reduction in fungal growth by broth dilution method; format: functional
# Trichophyton rubrum [40] = test: Antifungal activity against Trichophyton rubrum clinical isolate 2 assessed as reduction in fungal growth by broth dilution method; format: functional
smiles,measurement,setting,value
COc1ccc(-c2cc(Oc3ccccc3)c3ccccc3n2)cc1,Activity,Mucor circinelloides [1],92.1%
same,Activity,Mucor circinelloides [2],94.3%
COc1cc(-c2ccc(F)cc2)nc2ccccc12,Activity,Mucor circinelloides [3],73.1%
same,Activity,Mucor circinelloides [4],60.3%
same,Activity,Mucor circinelloides [1],20.6%
same,Activity,Mucor circinelloides [5],78.4%
same,Activity,Mucor circinelloides [6],14.9%
same,Activity,Mucor circinelloides [2],17.1%
same,Activity,Mucor circinelloides [7],47.9%
same,Activity,Mucor circinelloides [8],12.6%
COc1cc(-c2cccc(C(F)(F)F)c2)nc2ccccc12,Activity,Mucor circinelloides [1],89.7%
same,Activity,Mucor circinelloides [2],88.9%
COc1ccc(-c2cc(Oc3ccccc3)c3ccccc3n2)cc1OC,Activity,Mucor circinelloides [1],98.2%
same,Activity,Mucor circinelloides [2],98.1%
Fc1cc(F)cc(-c2ccc3ccccc3n2)c1,Activity,Mucor circinelloides [1],59.5%
same,Activity,Mucor circinelloides [2],57.5%
c1ccc(Oc2cc(-c3ccccc3)nc3ccccc23)cc1,Activity,Mucor circinelloides [1],97.9%
same,Activity,Mucor circinelloides [2],97.4%
Clc1ccc(-c2cc(Oc3ccccc3)c3ccccc3n2)cc1,Activity,Mucor circinelloides [1],32.3%
same,Activity,Mucor circinelloides [2],36.1%
COc1cc(-c2ccccc2)nc2ccccc12,Activity,Mucor circinelloides [1],95.8%
same,Activity,Mucor circinelloides [2],97.8%
O=[N+]([O-])c1ccc(Oc2cc(-c3ccc(Cl)c(Cl)c3)nc3ccccc23)cc1,Activity,Mucor circinelloides [1],85.9%
same,Activity,Mucor circinelloides [2],83.9%
COc1ccc(-c2cc(OC)c3ccccc3n2)cc1OC,Activity,Mucor circinelloides [1],96.2%
same,Activity,Mucor circinelloides [2],97.1%
COc1cc(-c2ccc(C)cc2)nc2ccccc12,Activity,Mucor circinelloides [1],84.9%
same,Activity,Mucor circinelloides [2],81.9%
OC(Cn1cncn1)(Cn1cncn1)c1ccc(F)cc1F [FLUCONAZOLE],MIC,[9],75 µg/mL
same,MIC,Microsporum canis [10],50 µg/mL
same,MIC,Epidermophyton floccosum,50 µg/mL
same,Activity,Mucor circinelloides [3],83.3%
same,Activity,Mucor circinelloides [4],28.2%
same,Activity,Mucor circinelloides [11],Active
same,Activity,[12],7.18 U/mg
same,"viability at 48 h, 200 ug/ml",[13],15.7%
same,Activity,Mucor circinelloides [14],Active
same,Activity,Mucor circinelloides [5],72.6%
same,MIC,Mucor circinelloides [15],150 µg/mL
same,MIC,Aspergillus niger,50 µg/mL
same,Activity,Mucor circinelloides [6],6.7%
same,MIC,Microsporum canis [16],50 µg/mL
same,MIC,[17],75 µg/mL
same,Activity,Mucor circinelloides [18],Active
same,Activity,Mucor circinelloides [19],Active
same,MIC,Microsporum canis [20],50 µg/mL
same,Activity,[21],2.49 U/mg
same,"viability at 48 h, 150 ug/ml",[22],15.5%
same,"viability at 48 h, 50 ug/ml",[23],25%
same,MIC,Nannizzia gypsea [24],50 µg/mL
same,MIC,Aspergillus nidulans [25],50 µg/mL
same,Activity,[26],0 U/mg
same,Activity,[27],12.8 U/mg
same,Activity,[28],1.25 U/mg
same,MIC,Aspergillus nidulans [29],50 µg/mL
same,Activity,Mucor circinelloides [30],Active
same,"viability at 48 h, 100 ug/ml",[31],18.8%
same,Activity,Mucor circinelloides [32],Active
same,"viability at 48 h, 25 ug/ml",[33],98.2%
same,MIC,Mucor circinelloides [34],> 150 µg/mL
same,Activity,Mucor circinelloides [35],Active
same,MIC,[36],75 µg/mL
same,MIC,Nannizzia gypsea [37],50 µg/mL
same,Activity,Mucor circinelloides [38],Active
same,MIC,Trichophyton rubrum [39],75 µg/mL
same,Activity,Mucor circinelloides [7],30.4%
same,MIC,Trichophyton rubrum [40],75 µg/mL
same,Activity,Mucor circinelloides [8],4.8%
O=[N+]([O-])c1ccc(Oc2cc(-c3cccc(Cl)c3)nc3ccccc23)cc1,Activity,Mucor circinelloides [1],21.9%
same,Activity,Mucor circinelloides [2],32.7%
c1ccc(-c2ccc3ccccc3n2)cc1 [2-PHENYLQUINOLINE],Activity,Mucor circinelloides [1],98.2%
same,Activity,Mucor circinelloides [2],98.1%
